Patent US8901276B2, “Peptide reagents and methods for detection of colon dysplasia” (The Regents of the University of Michigan, priority 2010, dated 2014)
Where no end group is shown, it is not given here.

Assays:
[1] = test system: isolated colonic epithelial cells from adenomas; experiment: Flow cytometry of FITC-conjugated phage clones; assay type: cell-based, CPC;Apc mice
Text: Specific binding of the candidate peptides to primary dysplastic colonic epithelial cells were validated on flow cytometry ex vivo and with small animal endoscopy in vivo using FITC-labeled peptides using a non-scanning white light endoscope.
Phages that bound to colonic adenomas approximately 10 times greater in number than to normal appearing colonic mucosa were chosen. As a result, 42 individual phage clones were sequenced from the third round of biopanning, and were individually amplified and conjugated to 5′-FITC. Binding to isolated colonic epithelial cells from adenomas for each phage clone was analyzed using flow cytometry. A common 7-mer phage that expresses the sequence HAIYPRH (SEQ ID NO: 29) is a known contaminant, and was run (labeled # in Supplementary FIG. 1B) to ensure the validity of the assay. […] Six phage clones with a T/B ratio (target to wild-type phage)>1.9 were identified as ALTPTPP (SEQ ID NO: 30), NLVNLLP (SEQ ID NO: 31), ANYPREP (SEQ ID NO: 32), ATTVPAS (SEQ ID NO: 33), LTTHYKL (SEQ ID NO: 26), and AKPGYLS (SEQ ID NO: 25). The KCCFPAQ (SEQ ID NO: 2) peptide had been previously found to bind to human HT29 cells.

colonic adenomas [2] = experiment: In vivo small animal fluorescence endoscopy with FITC-labeled peptides; design: species or system CPC;Apc mice; details: topical, 5 min incubation, mean±SD
Method: Prior to peptide administration, the colon was prepped using a tap water lavage. Using a small animal endoscope (Karl Storz Veterinary Endoscopy, Goleta, Calif.) with an instrument channel for performing biopsy, polyps suitable for peptide administration were located and the colon was rinsed with water until all mucous was removed. FITC-labeled Peptide 1 and Control peptide 1 were delivered in 1×PBS through the instrument channel. The peptides were allowed to incubate for 5 minutes after which the colon was cleansed 3× with a tap water to remove the unbound peptide. […] Fluorescence excitation produced with a 450-475 nm passband filter that can be manually switched to the optical path of a 175 W Nova Xenon light source was delivered to the endoscope via a 3 mm diameter fluid light cable (250 cm length). Fluorescence images were collected with a 510 nm long-pass barrier filter to block the excitation light and detected with a 3-chip color camera with an integrated parfocal zoom lens. Real time video was recorded via firewire connected to a personal computer. Polyps in CPC;Apc mice developing distal colonic adenomas (Peptide 1, n=6 mice, n=18 polyps; Control peptide 1, n=4 mice, n=7 polyps) in addition to Cre recombinase negative littermate controls (Peptide 1, n=2 mice) and Hyperplastic Kras mice (Peptide 1, n=3 mice) were imaged using both white light and fluorescence endoscopy. […]

[3] = test system: dysplastic crypts of excised polyps; experiment: Confocal fluorescence imaging of ex vivo binding; design: species or system CPC;Apc mice; details: ex vivo incubated polyps
Method: Preferential binding of the Peptide 1 compared to the Control peptide 1 on the adenomatous polyps was again confirmed with confocal microscopy. After peptide incubation, excised polyps were incubated ex vivo in 1 μg/mL Hoechst dye for 5 min to stain living nuclei, rinsed 3× with 1×PBS and imaged on an Olympus Confocal Microscope (Olympus, Tokyo, Japan).

colonic adenomas [4] = experiment: In vivo NIR imaging of Cy5.5-labeled AKP peptides; design: species or system CPC;Apc mice; details: for T/B ratio: 100 μM, 1.5 mL topical, 5 min; for detection of lesions by size: adenomas ˜0.5 to 4 mm
Method: The binding activity of the synthetic peptides to colonic dysplasia was assessed in vivo in 3 cohorts of CPC;Apc mice: 1) AKP-multimer, n=14 mice with n=33 adenomas, 2) AKP-monomer, n=14 mice with n=27 adenomas, and 3) trilysine core, n=8 mice with n=17 adenomas as a control. For the imaging studies, anesthesia was induced and maintained in the animals with inhaled isoflurane mixed with oxygen via a nose cone at a dose of 4% and 2% at a flow rate of 0.5 liter/min, respectively. Prior to applying the peptides, the colon was prepped using a tap water lavage. The adenomas were viewed endoscopically, and videos were recorded using white light with a small animal endoscope (Karl Storz Veterinary Endoscopy, Goleta, Calif.). The colon was rinsed with water until all mucous and other debris was removed. Adenomas from approximately 0.5-4 mm in diameter that were not covered in debris, including stool and mucous, were included in the study.
The Cy5.5-labeled peptides were delivered at a concentration of 100 μM in PBS containing 2.5% DMSO (dimethyl sulfoxide) through the instrument channel of the endoscope. During peptide administration, 1.5 mL of peptide was delivered to the distal colon in each mouse. The peptide was allowed to incubate for 5 min after which the colon was cleansed 3× with a tap water to remove the unbound peptide. Prior to imaging, the colon was inspected for residual peptide solution, and when clean, the colon was insufflated with air and imaged with the wide field endoscope which provides excitation at 671 nm. Fluorescence and reflectance videos were collected using Axiovision 4.8.1 software. Fluorescence videos were collected at 100 ms/frame (10 Hz), and transferred to the computer for storage by a firewire connection. A filter wheel was incorporated into the handle of the housing to quickly switch between collection of reflectance and fluorescence images. White light, fluorescence and reflectance images were collected from 1) n=14 mice having n=33 adenomas with AKP-multimer, 2) n=14 mice having n=27 adenomas with AKP-monomer, and 3) n=8 mice having n=17 adenomas with the trilysine (control). The CPC;Apc mice imaged ranged in age from 3 to 6 months. Fluorescence images were exported as videos in zvi format (16 bit digital resolution) using LabView software. Sequentially-collected white light and fluorescence images for each adenoma were analyzed. Separate regions of interest (ROI) were defined around the adenoma and adjacent normal-appearing mucosa on the white light image, and the ROI's were overlayed onto the fluorescence images. The target to-background (T/B) ratio was determined by ratioing the mean intensities from these 2 ROI's.

HT29 cells [5] = experiment: Measurement of binding affinity by flow cytometry; design: species or system human; details: FITC-labeled, 0 to 10 μM, 4° C., 1 hr
Method: (§1) The binding affinity of multimer and monomer peptide was measured by varying the concentration of the 5-FITC-labeled peptides and trilysine incubated with the target cells (1×10^5) until saturation of fluorscence intensity was achieved. The FITC-labeled peptide was serially diluted in PBS at concentrations that varied from 0 to 10 μM and incubated with the target cells at 4° C. for 1 hr. The unbound peptide was rinsed off the cells by washing 3× with cold PBS/0.2% Tween-20 solution. The cells were fixed with 4% PFA, as mentioned above, washed 1× with PBS, and resuspended in 1 mL of PBS. Cells were transferred to a 5 mL tube and subjected to flow-cytometric analysis. The median fluorescence intensity from each concentration of peptides was used to calculate the affinity constant. The equilibrium dissociation constants (Kd=1/Ka) of the peptide-cell interaction were obtained by fitting the data to the non-linear equation I[X]=(I0+ImaxKa[X])/(I0+Ka[X]). I0 and Imax are the initial and maximum fluorescence intensities, corresponding to no peptide and at saturation, respectively, and [X] represents the concentration of the bound peptide. Origin 6.1 data analysis software (Origin Lab Corp, Northampton, Mass.) was used to perform a non-linear least square fit of the data.

SW480 cell line = experiment: Measurement of binding affinity by flow cytometry; design: species or system human; details: FITC-labeled, 0 to 10 μM, 4° C., 1 hr
Method: as §1

HT29 cells [6] = experiment: Kinetic measurements by flow cytometry; assay type: binding, human; details: for rate constant K: 10 μM, 4° C., 0-60 min, first order fit
Method: The binding kinetics for AKP-monomer and AKP-multimer peptide was further evaluated on the target cells in the presence of 10 μM peptide concentration. The target cells (5×10^5) were detached and blocked as mentioned earlier and incubated with both monomer and multimer peptides at 4° C. over time from 0-60 min. After completing the incubation for each time course, the samples were prepared for flow cytometry, as mentioned above. The kinetics of peptide binding with the cell surface was determined by measuring the shift in the intensity of FITC-channel as a function of time. The resulting data were converted to median values as a function of time, and the rate constant was calculated using first order rate kinetics Y=a−b*exp^(−kx); where a=maximum value, b=difference in intensity (I−I0), and K=rate constant. Curve fits were performed using Origin 6.1 data analysis software.

HT29 cells [7] = experiment: Fluorescence microscopy of FITC-labeled AKP peptides; assay type: cell-based, human
Method: (§2) Preferential binding of the FITC-labeled peptides to the target and non-target cells as mentioned above was further validated via fluorescence microscopy. Cells (˜7.5×10^3) were seeded on cover slips to ˜80% confluence. The cells were then incubated with 10 μM of 5-FITC-labeled peptides and trilysine at 4° C. for 1 hr followed by staining with 1 μg/mL Hoechst dye (Sigma Aldrich, St. Louis, Mo.). The cells were washed 3× with PBS and fixed with 4% paraformaldehyde at RT for 10 min. After fixation, the cells were washed again with PBS (1×) and mounted with ProLong Gold reagent (Invitrogen, Carlsbad, Calif.) and fluorescence images were collected with confocal microscopy (Leica TCS SP5 Microsystems, Bannockburn, Ill.). The specific peptide binding activity of the FITC-labeled AKP-multimer and AKP-monomer peptides was compared.

CCD-841Con cells [8] = experiment: as above; assay type: cell-based, human; details: 10 μM, 4° C., 1 hr
Method: as §2

SW480 cells [9] = experiment: as above; assay type: cell-based, human; details: 10 μM, 4° C., 1 hr
Method: as §2

HT29 cells [10] = experiment: Flow cytometry of FITC-labeled AKP peptides; assay type: cell-based, human
Text: (§3) Peptides labeled with 5-FITC were used for the validation assays of cell binding. Preferential binding of the multimer peptide, monomer peptide, and trilysine to different human colorectal cancer (SW480, and HT29) and control cells (CCD841-Con) was validated on flow cytometry. A total of 5×10^5 cells were used with each probe. The confluent cells were detached using enzyme free cell dissociation buffer (Invitrogen, Carlsbad, Calif.) or trypsin with 0.25% EDTA (Mediatech Inc, Manassa, Va.) and immersed in blocking buffer, PBS with 1% bovine serum albumin (BSA), for 30 min at 4° C. with continuous agitation. After blocking, cells were washed with 1×PBS and spun down for 5 min at 1000 rpm. Then cells were incubated with the 5-FITC labeled peptides and trilysine (10 μM) for 60 min at 4° C. with continuous agitation. The cells were then washed 3× with cold PBST followed by immediate fixation for 10 min with 4% paraformaldehyde. The cells were washed again (1×) with PBS and resuspended in 1 mL of PBS. Flow cytometry was performed using FACSDiVa (BD® LSRII, BD Biosciences, San Jose, Calif.) and analyzed using Flowjo analysis program (Tree Star Inc, Ashland, Oreg.). The gain was kept constant for all experiments.

CCD-841Con cells [11] = experiment: Flow cytometry of FITC-labeled AKP peptides; assay type: cell-based, human; details: 10 μM, 60 min, 4° C.
Text: as §3

SW480 cells [12] = experiment: Flow cytometry of FITC-labeled AKP peptides; assay type: cell-based, human; details: 10 μM, 60 min, 4° C.
Text: as §3

[13] = cell line not specified (SW480, HT29, CCD-841Con tested)

HAIYPRH
T/B ratio (target to wild-type phage) [1]: 1.10±0.08

GGGAGGGA [FITC-Control peptide 1, control peptide containing Gly and Ala, FITC-labeled]
T/B (polyp/normal colon, target to background ratio) (colonic adenomas [2]): 1.14±0.15 | binding to dysplastic crypts, confocal microscopy [3]: Minimal to no binding

AKP-multimer: tetrameric version of AKPGYLS anchored on a trilysine core; Cy5.5 label in vivo, FITC label in vitro (also: tetramer on trilysine core, Cy5.5 or FITC label)
NIR fluorescence signal from adenomas (colonic adenomas [4]; Cy5.5-labeled): significantly amplified | average fluorescence intensity from colonic adenomas relative to AKP-monomer and trilysine control (colonic adenomas [4]; Cy5.5-labeled): ~1.8 fold | T/B ratio (colonic adenomas [4]; Cy5.5-labeled): 3.84±0.26 | detection of lesions by size (colonic adenomas [4]): detected all lesions regardless of size | Kd (HT29 cells [5]): 6.4 nM | Kd (SW480 cell line): 101 nM | binding speed relative to AKP-monomer (HT29 cells [6]): ~2 fold | rate constant K (HT29 cells [6]): 0.1136 min⁻¹ | rate constant K (HT29 cells [6]; listed as multimer): 0.1136 min⁻¹ | binding to plasma membrane (HT29 cells [7]; HT29, FITC-labeled, 10 μM, 4° C., 1 hr): bound specifically to the plasma membrane | binding to plasma membrane (CCD-841Con cells [8]): not to CCD-841Con cells | binding to plasma membrane (SW480 cells [9]): bound specifically to the plasma membrane | counts relative to unstained cells (HT29 cells [10]; HT29, FITC-labeled, 10 μM, 60 min, 4° C.): 26.1 times | counts relative to unstained cells (CCD-841Con cells [11]): 2.2 times | counts relative to unstained cells (SW480 cells [12]): 20.2 times

AKPGYLSGGGSK-NH2 [AKP-monomer, Cy5.5 label in vivo, FITC label in vitro]
NIR fluorescence signal from adenomas (colonic adenomas [4]; Cy5.5-labeled): faint fluorescence intensity | T/B ratio (colonic adenomas [4]; Cy5.5-labeled): 2.21±0.13 | detection of lesions by size (colonic adenomas [4]): did not visualize lesions smaller than ˜1 mm | Kd (HT29 cells [5]): 310 nM | Kd (SW480 cell line): 1210 nM | rate constant K (HT29 cells [6]): 0.0663 min⁻¹ | cell staining on microscopy (HT29 cells [7]; [13]): lower fluorescence intensity at the cell surface | extent of cell binding on flow cytometry (HT29 cells [10]; [13]): bound to a lower extent than the AKP-multimer
